Measurements taken from patent US7919508B2, “3-piperidinylisochroman-5-ols as dopamine agonists” (Aventis Pharmaceuticals Inc., priority 2004, dated 2011).
Structures can show the parent of a compound that is named as a salt.

Assays:
D1 receptor = biological target: T1, D1 receptor (Homo sapiens, UniProt P21728); test: D1 Activation Adenylyl Cyclase Assay (cAMP FlashPlate, D1 transfected CHO cell line); format: cell-based; conditions: agonist activity at the D1 receptor, adenylate cyclase assay, D1 transfected CHO cell line; read-out: D1 EC50
T1 construct: expressed in transfected cells; host or cells: D1 transfected CHO cell line
T1 sequence (P21728 whole entry): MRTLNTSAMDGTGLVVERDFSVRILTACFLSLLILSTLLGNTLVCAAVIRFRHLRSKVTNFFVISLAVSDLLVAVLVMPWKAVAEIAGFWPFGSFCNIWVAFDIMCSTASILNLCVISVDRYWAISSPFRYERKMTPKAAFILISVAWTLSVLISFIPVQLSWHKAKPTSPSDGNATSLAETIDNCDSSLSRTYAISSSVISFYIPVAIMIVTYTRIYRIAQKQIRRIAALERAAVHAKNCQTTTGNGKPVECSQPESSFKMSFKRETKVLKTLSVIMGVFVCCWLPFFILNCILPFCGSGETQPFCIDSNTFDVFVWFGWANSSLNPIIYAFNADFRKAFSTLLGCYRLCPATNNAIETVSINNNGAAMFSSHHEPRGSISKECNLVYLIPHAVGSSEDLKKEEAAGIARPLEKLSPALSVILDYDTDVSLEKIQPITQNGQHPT
Procedure: D1 Activation Adenylyl Cyclase Assay
Purpose: To measure D1-agonist activity compounds using an Adenylyl Cyclase Activation Flash Plate Assay from NEN.
Buffers: Activation and Detection buffers are provided from NEN: Catalog # SMP004A.
Maintenance of D1 transfected CHO cell line: • 1. Cells are grown in a 150 cc flask in an incubator at 37° C. with 5% CO2 for 2-3 days (4 maximum) until confluent. • 2. Aspirate off old media (Cells adhere to the plastic flask), wash 2× with sterile PBS. • 3. Add ˜5 mL of Trypsin EDTA (enough to cover bottom of the flask) for 5 min. at RT. • 4. Stop digestion with 15 mL of Media (Ham's F12 plus 10% FBS, 1% P/S, 400 μg/mL G418). • Bang flask on counter to release them from the flask. • 5. Add 2 mL of this to 30 mL of Media in a fresh flask. Return to incubator. Preparation of Cells for Assay: • 1. Loosen the cells with 5 mL Vercine (EDTA)/flask for 10 minutes in incubator. • 2. Add 20 mL of Serum-free media/flask. Transfer to 50-mL Falcon tube. • 3. Spin down cells at 1000 RPM for 5 minutes at 4° C. • 4. Aspirate off old media and resuspend in 5 mL of Serum-free media/plate to be done. • 5. Dilute 10 μL 1/10 in 90 μL Trypan Blue solution and count with a hemocytometer. • Count (live cells only) all four areas and average them. • Count X 10^5 equals cells/mL (including accounting for dilution in Trypan). • 6. Dilute to 50,000 cells/50 μL (1,000,000 cells/mL) in Serum-free media. • 7. Put 50 μL/well in Rows 3-12 of a cAMP FlashPlate. • 8. Put in incubator at 37° C. for 2-4 hours, to allow cells to recover and attach. Adenylyl Cyclase Activation Assay: • 1. Prepare the cAMP standards: • Add 130 μL/well of stimulation buffer to each row of a separate 96-well “standard” plate, 2 columns/plate. • Dilute stock cAMP standard 1/5 with stimulation buffer (final concentration is 1000 pmol/mL). Add 130 μL of this to row A. • Make 1/2 serial dilutions by adding 130 μL from each well to the next (A-G), mixing between each. • Final concentrations are: • A: 500, B: 250, C: 125, D: 62.5, E: 31.25, F: 15.6, G: 7.8, H: 0 pmol/mL. • Place 100 μL from each row from 2 columns of the standard plate into columns 1 and 2 of each “reaction” plate. • 2. Prepare the negative and positive control in the “reaction” plate: • Column 3, rows A-D, add 100 μL stimulation buffer (negative control). • Column 3, rows E-H, add 90 μL of stimulation buffer plus 10 μL of 200 μM APO (positive control, […]). (10 μL 10 mM APO, plus 490 μL stim. buffer=1/50 dilution.) • 3. Prepare the agonist compound dilutions in the “compound” plate: • Add 80 μL of stimulation buffer to row A (One column for each compound), and 90 μL of stimulation buffer to rows B—H. • Add 20 μL of 10 mM of each compound to appropriate row A. • Make 1/10 serial dilutions by adding 10 μL from each well to the next (A-H), mixing between each. • 4. […]. Prepare Detection/Stop buffer by adding 90 μL/plate of cAMP-^125I to 10 mL/plate plus 6 mL (for dead volume) of detection buffer. Steps 6-8 performed with the Multi-Mek. • 6. Add 50 μL to each well of the FlashPlate with CHO cells set up earlier. • 7. Incubate at RT for 8 minutes. • 8. Stop reaction by adding 100 μL of detection/stop buffer to each well. • 9. Cover with plastic film and incubate at RT for 16-24 hours (don't wait more than 24 hours). • 10. Count in a Packard Top-Count. Calculations: • 1. Raw signals generated by cAMP standard wells, without cells, are averaged at each cAMP concentration and converted to % B/Bo by dividing the raw signal at each cAMP concentration by the raw signal with no cAMP added. • 2. These values are used to generate a standard curve by plotting cAMP concentration versus % B/Bo. • 3. Raw data for each compound at each concentration is also converted to % B/B. by the same method. • 4. These values are then converted to pmol cAMP/mL using the standard curve. • 5. These cAMP values are then averaged across the three replicates for each compound concentration. • 6. […]

[1] = biological target: T2, human dopamine D1 receptor (Homo sapiens, UniProt P21728); test: [3H]-SCH-23390 binding to cloned human dopamine D1 receptors (CHO cell membranes); conditions: competitive binding, [3H]-SCH-23390, cloned human D1 in CHO membranes; read-out: D1 affinity Ki
T2 construct: A 1.4 Kb Hind III to Xho I fragment was subcloned into the vector pMMLV; expressed in transfected cells; host or cells: CHO cells, clone CHO-D1M#9 (plasmid pHD1MMLV), membranes
T2 sequence (P21728 whole entry, the tested form may be a part): as the sequence (P21728 whole entry) above

[2] = biological target: human dopamine D2Long (D2L) receptors (Homo sapiens, UniProt P14416)
Chain of human dopamine D2Long (D2L) receptors (P14416 whole entry): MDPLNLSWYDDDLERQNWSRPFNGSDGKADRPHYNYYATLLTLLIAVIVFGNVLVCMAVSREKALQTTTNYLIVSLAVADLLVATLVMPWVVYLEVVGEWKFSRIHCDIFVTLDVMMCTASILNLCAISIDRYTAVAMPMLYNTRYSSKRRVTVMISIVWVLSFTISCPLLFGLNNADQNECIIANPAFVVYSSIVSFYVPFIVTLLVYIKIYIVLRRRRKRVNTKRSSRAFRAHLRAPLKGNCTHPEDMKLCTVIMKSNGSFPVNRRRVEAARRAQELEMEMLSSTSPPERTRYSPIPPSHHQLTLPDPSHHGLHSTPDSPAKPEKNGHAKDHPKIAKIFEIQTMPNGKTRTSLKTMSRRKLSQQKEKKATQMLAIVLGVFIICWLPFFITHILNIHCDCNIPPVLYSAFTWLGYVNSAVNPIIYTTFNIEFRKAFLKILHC
Procedure: [N-Methyl-^3H]Spiroperidol Binding to Cloned Human Dopamine D2Long Receptors
This assay measures the in vitro activity of drugs on cloned human dopamine D2Long (D2L) receptors and predicts the direct dopamine-displacing properties of neuropsychiatric, cardiovascular and renal agents at human dopamine D2 receptors.
Cells were maintained in Ham's F12+10% Fetal Bovine Serum+Penicillin/Streptomycin (100 U/ml/100 μg/ml)+G418 (400 μg/ml) medium and were split using Trypsin-EDTA (1 ml/plate, room temperature for ˜2 min. or until cells have lifted off plates). • 2. […] Plates are incubated at 37° C.+5% CO2 for ˜3 days or until cells were confluent.
Cells are harvested by mechanical scraping, washed using PBS collected in 250 ml Corning polypropylene centrifuge tubes, spun down and resuspended in dH2O (final volume per harvest approximately 60 ml). Protein determination is made according to the method of Lowry (Biorad DC Assay Kit). Following the determination of the protein concentration, the protein is diluted into distilled water with 10% DMSO to the appropriate volume based on expression levels (Bmax). The concentrated protein is aliquoted into 1.5 ml screw top eppendorf tubes and placed into a −80° C. freezer.
Assay Requirement: 1 cryovial per two 96 well plates
0.5M Tris Wash Buffer, pH 7.7 • a) 44.4 g Tris HCl • 26.5 g Tris Base • q.s. to 1 Liter (0.5 M Tris buffer, pH 7.7 at 37° C.) • b) make a 1:10 dilution in distilled H2O (0.05 M. Tris buffer, pH 7.7) • 2. Tris Buffer containing physiological salts • a) Stock buffer • NaCl 7.014 g • KCl 0.372 g • CaCl2 0.222 g • MgCl2 0.204 g • q.s. To 100 ml with 0.5 M. Tris Buffer • b) Dilute 1:10 in distilled H2O • This yields 0.05 M. Tris HCl, pH 7.7, containing NaCl (120 mM), KCl (5 mM), CaCl2 (2 mM) and MgCl2 (1 mM) • Optional: add 0.1% ascorbic acid and check pH (in assays with compounds that may oxidize. • c) 1.0% polyethyleneimine stock in 0.5M Tris (reagent 1.a) • Dilute 1:10 in distilled H2O Binding Assay • 750 μl Tissue • 150 μl [^3H]NMSP • 100 μl vehicle (for total binding) or 30 μM (−)
eticlopride (for nonspecific binding) or appropriate drug concentration.
The 96-Well Packard Unifilters GF/B are incubated for >1 h at 25° C. in 0.1% polyethylenimine. The cold tissue is added last and mixed on a orbital shaker for a few seconds and is then incubated at 37° C. for 30 min in a shaking water bath. The assay is stopped by rapid filtration through Packard Unifilter plates. The filter membranes are then washed with 15 ml of ice-cold 0.05 M Tris buffer. The filters are then dried (˜15 min. under a heat lamp or incubated for 15 min. in a 60° C. oven) and a bottom seal is applied. Then 40 μl of Packard Microscint 20 scintillation cocktail are added and a permanent topseal (Type P) is applied and heat sealed. The plates are placed in a Packard Topcount.
Specific binding is defined as the difference between total binding and the binding in the presence of 3 μM S-(−)-eticlopride. Total binding is approximately 10% of the total added ligand. […] The percent inhibition at each drug concentration is the mean of duplicate determinations.

Structure (SMILES) | EC50 (D1 receptor) | Ki [1] | Ki [2]
Cc1ccc(C(=O)NC(C)CCN2CCC([C@@H]3Cc4c(ccc(C)c4O)[C@H](CN)O3)CC2)cc1 (stereo partly drawn) [Example 15, N-{3-[4-((1R,3S)-1-Aminomethyl-5-hydroxy-6-methyl-isochroman-3-yl)-piperidin-1-yl]-1-methyl-propyl}-4-methyl-benzamide dihydrochloride] | 11 nM | 126 nM | –
Cc1ccc2c(c1O)C[C@@H](C1CCN(CCC(C)NC(=O)c3ccc(Br)cc3)CC1)O[C@H]2CN (stereo partly drawn) [Example 23, N-{3-[4-((1R,3S)-1-Aminomethyl-5-hydroxy-6-methyl-isochroman-3-yl)-piperidin-1-yl]-1-methyl-propyl}-4-bromo-benzamide dihydrochloride] | 59 nM | 91.8 nM | –
Cc1ccc2c(c1O)C[C@@H](C1CCN(CCC(C)c3ccccc3)CC1)O[C@H]2CN (stereo partly drawn) [Example 27, (1R,3S)-1-Aminomethyl-6-methyl-3-[1-(3-phenyl-butyl)-piperidin-4-yl]-isochroman-5-ol dihydrobromide] | 280 nM | – | –
Cc1ccc2c(c1O)C[C@@H](C1CCN(Cc3ccncc3)CC1)O[C@H]2CN [Example 54, (1R,3S)-1-Aminomethyl-6-methyl-3-(1-pyridin-4-ylmethyl-piperidin-4-yl)-isochroman-5-ol dihydrochloride] | 45 nM | 153 nM | –
Cc1ccc2c(c1O)C[C@@H](C1CCN(Cc3ccc(Cl)cc3)CC1)O[C@H]2CN [Example 58, (1R,3S)-1-Aminomethyl-3-[1-(4-chloro-benzyl)-piperidin-4-yl]-6-methyl-isochroman-5-ol dihydrochloride] | 10 nM | 52 nM | –
COc1ccc(CN2CCC([C@@H]3Cc4c(ccc(C)c4O)[C@H](CN)O3)CC2)cc1 [Example 61, (1R,3S)-1-Aminomethyl-3-[1-(4-methoxy-benzyl)-piperidin-4-yl]-6-methyl-isochroman-5-ol dihydrochloride] | 47 nM | 19.8 nM | –
Cc1ccc2c(c1O)C[C@@H](C1CCN(Cc3ccc(O)cc3)CC1)O[C@H]2CN [Example 62, (1R,3S)-1-Aminomethyl-3-[1-(4-hydroxy-benzyl)-piperidin-4-yl]-6-methyl-isochroman-5-ol dihydrochloride] | 14 nM | 46.1 nM | –
Cc1ccc2c(c1O)C[C@@H](C1CCN(Cc3ccc(F)c(F)c3)CC1)O[C@H]2CN [Example 63, (1R,3S)-1-Aminomethyl-3-[1-(3,4-difluoro-benzyl)-piperidin-4-yl]-6-methyl-isochroman-5-ol dihydrochloride] | 9 nM | 6.8 nM | –
Cc1ccc(CN2CCC([C@@H]3Cc4c(ccc(C)c4O)[C@H](CN)O3)CC2)cc1 [Example 66, (1R,3S)-1-Aminomethyl-6-methyl-3-[1-(4-methyl-benzyl)-piperidin-4-yl]-isochroman-5-ol dihydrochloride] | 6 nM | 75.7 nM | –
Cc1ccc2c(c1O)C[C@@H](C1CCN(Cc3ccsc3)CC1)O[C@H]2CN [Example 67, (1R,3S)-1-Aminomethyl-6-methyl-3-(1-thiophen-3-ylmethyl-piperidin-4-yl)-isochroman-5-ol dihydrochloride] | 9 nM | 62.6 nM | –
Cc1ccc2c(c1O)C[C@@H](C1CCN(Cc3cccc(F)c3)CC1)O[C@H]2CN [Example 69, (1R,3S)-1-Aminomethyl-3-[1-(3-fluoro-benzyl)-piperidin-4-yl]-6-methyl-isochroman-5-ol dihydrochloride] | 10 nM | 32.5 nM | –
Cc1ccc2c(c1O)C[C@@H](C1CCN(Cc3ccc(C(F)(F)F)cc3F)CC1)O[C@H]2CN [Example 70, (1R,3S)-1-Aminomethyl-3-[1-(2-fluoro-4-trifluoromethyl-benzyl)-piperidin-4-yl]-6-methyl-isochroman-5-ol dihydrochloride] | 77 nM | 19.4 nM | –
Cc1ccc2c(c1O)C[C@@H](C1CCN(Cc3ccoc3)CC1)O[C@H]2CN [Example 71, (1R,3S)-1-Aminomethyl-3-(1-furan-3-ylmethyl-piperidin-4-yl)-6-methyl-isochroman-5-ol hydrochloride] | 420 nM | 94.2 nM | –
Cc1ccc2c(c1O)C[C@@H](C1CCN(Cc3ccccc3)CC1)O[C@H]2CN [Example 93, (1R,3S)-1-Aminomethyl-3-[1-(benzyl)-piperidin-4-yl]-6-methyl-isochroman-5-ol dihydrobromide] | 45 nM | – | –
CNC[C@@H]1O[C@H](C2CCN(C)CC2)Cc2c1ccc(C)c2O [Example 102, (1R,3S)-6-Methyl-1-methylaminomethyl-3-(1-methyl-piperidin-4-yl)-isochroman-5-ol dihydrobromide] | 1500 nM | 147 nM | –
Cc1ccc2c(c1O)C[C@@H](C1CCN(CCCC(c3ccc(F)cc3)c3ccc(F)cc3)CC1)O[C@H]2CN [Example 108, (1R,3S)-1-Aminomethyl-3-{1-[4,4-bis-(4-fluoro-phenyl)-butyl]-piperidin-4-yl}-6-methyl-isochroman-5-ol dihydrobromide] | 36 nM | 110 nM | –
Cc1ccc2c(c1O)C[C@@H](C1CCN(CCCc3ccccc3)CC1)O[C@H]2CN [Example 110, (1R,3S)-1-Aminomethyl-6-methyl-3-[1-(3-phenyl-propyl)-piperidin-4-yl]-isochroman-5-ol dihydrochloride] | 6 nM | – | –
Cc1ccc2c(c1O)C[C@@H](C1CCN(Cc3ccc(C(F)(F)F)cc3)CC1)O[C@H]2CN(C)C [Example 168, (1R,3S)-1-Dimethylaminomethyl-6-methyl-i-3-[1-(4-trifluoromethylbenzyl)piperidin-4-yl]-isochroman-5-ol] | 31000 nM | 45 nM | –
C=CCN(CC=C)C[C@@H]1O[C@H](C2CCN(CC(=O)c3ccccc3)CC2)Cc2c1ccc(C)c2O [Example 180, 2-[4-((1R,3S)-1-Diallylaminomethyl-5-hydroxy-6-methyl-isochroman-3-yl)-piperidin-1-yl]-1-phenyl-ethanone] | – | 642 nM | 86 nM
CCCN(CCC)C[C@@H]1O[C@H](C2CCN(Cc3ccccc3)CC2)Cc2c1ccc(C)c2O [Example 188, (1R,3S)-3-(1-Benzyl-piperidin-4-yl)-1-dipropylaminomethyl-6-methyl-isochroman-5-ol dihydrochloride] | – | 586 nM | 140 nM
Cc1ccc(C(=O)NCCN2CCC([C@@H]3Cc4c(ccc(C)c4O)[C@H](CN)O3)CC2)cc1 [Example 190, N-{2-[4-((1R,3S)-1-Aminomethyl-5-hydroxy-6-methylisochroman-3-yl)-piperidin-1-yl]-ethyl}-4-methylbenzamide dihydrobromide] | – | 46 nM | 361 nM
